Source: patent publication US8357687B2, “Macrocyclic indole derivatives useful as hepatitis C virus inhibitors” (priority 2008, dated 2013)

Columns and labels:
[1] = test system: NS5B chimeric replicon of clinical isolate 1a_H77 in Huh7-cure cells; assay: Transient replicon assay, chimeric replicon of clinical isolate 1a_H77 (CI1); assay type: cell-based, HCV genotype 1a; settings: Hepatitis C virus, 48 h, read-out: EC50-T CI1
[2] = test system: NS5B chimeric replicon of clinical isolate 1a—6 in Huh7-cure cells; assay: Transient replicon assay, chimeric replicon of clinical isolate 1a—6 (CI2); assay type: cell-based, HCV genotype 1a; settings: Hepatitis C virus, 48 h, read-out: EC50-T CI2
[3] = test system: wild type replicon of genotype 1b (con1b) in Huh7-cure cells; assay: Transient replicon assay, wild type replicon of genotype 1b (Con1b); assay type: cell-based, HCV genotype 1b; settings: Hepatitis C virus, transient wild type replicon genotype 1b, 48 h, luciferase, read-out: EC50-T Con1b

| Structure (SMILES) | EC50 [1] [nM] | EC50 [2] [nM] | EC50 [3] [nM] |
| --- | --- | --- | --- |
| COc1ccc2c(c1)OCC(=O)N(C)CCCCN(C)S(=O)(=O)NC(=O)c1ccc3c(C4CCCCC4)c-2n(C)c3c1 [Compound 53, 24-cyclohexyl-22-methoxy-4,9,18-trimethyl-4,5,6,7,8,9-hexahydro-13,17:16,19-di(metheno)-1,10,4,9,11,18-benzoxathiatetraazacyclohenicosine-3,12(2H,11H,18H)-dione 10,10-dioxide] | 44 | 66 | 83 |
| COc1ccc2c(c1)OCC(=O)N(C)CCOCCN(C)S(=O)(=O)NC(=O)c1ccc3c(C4CCCCC4)c-2n(C)c3c1 [Compound 54, 25-cyclohexyl-23-methoxy-4,10,19-trimethyl-5,6,9,10-tetrahydro-2H,8H-14,18:17,20-di(metheno)-1,7,11,4,10,12,19-benzodioxathiatetraazacyclodocosine-3,13 (4H,12H,19H)-dione 11,11-dioxide] | 67 | 81 | 103 |
